# Legend:
# Assay in all cases: Kinase panel (mobility shift)
# Format in all cases: biochemical
# EPH-A4 = EPH-A4 (Homo sapiens, UniProt P54764)
# Experimental: (§1) The disclosed compounds were tested for activity against a panel of 299 kinases. The target enzyme was incubated with fluorescently labeled substrate and test compounds in a standardized reaction mixture in 384 well plates. Upon termination of the reaction, samples were introduced onto microfluidic chips. The samples migrated through channels in the chips and product and substrate were separated based on the difference in their charge (electrophoretic mobility shift). Enzyme activity was measured by direct comparison of the fluorescence in the product and substrate peaks. […] In the tables A=95% or greater at 5 um, B=90%-94% at 5 um, and C=80%-89% at 5 um. [note to draft: we included category D for 50-79 and category E is less than 50%. Feel free to remove if not needed)
# HIPK3 = HIPK3 (Homo sapiens, UniProt Q9H422)
# HIPK3, sequence (Q9H422 whole entry, species assumed): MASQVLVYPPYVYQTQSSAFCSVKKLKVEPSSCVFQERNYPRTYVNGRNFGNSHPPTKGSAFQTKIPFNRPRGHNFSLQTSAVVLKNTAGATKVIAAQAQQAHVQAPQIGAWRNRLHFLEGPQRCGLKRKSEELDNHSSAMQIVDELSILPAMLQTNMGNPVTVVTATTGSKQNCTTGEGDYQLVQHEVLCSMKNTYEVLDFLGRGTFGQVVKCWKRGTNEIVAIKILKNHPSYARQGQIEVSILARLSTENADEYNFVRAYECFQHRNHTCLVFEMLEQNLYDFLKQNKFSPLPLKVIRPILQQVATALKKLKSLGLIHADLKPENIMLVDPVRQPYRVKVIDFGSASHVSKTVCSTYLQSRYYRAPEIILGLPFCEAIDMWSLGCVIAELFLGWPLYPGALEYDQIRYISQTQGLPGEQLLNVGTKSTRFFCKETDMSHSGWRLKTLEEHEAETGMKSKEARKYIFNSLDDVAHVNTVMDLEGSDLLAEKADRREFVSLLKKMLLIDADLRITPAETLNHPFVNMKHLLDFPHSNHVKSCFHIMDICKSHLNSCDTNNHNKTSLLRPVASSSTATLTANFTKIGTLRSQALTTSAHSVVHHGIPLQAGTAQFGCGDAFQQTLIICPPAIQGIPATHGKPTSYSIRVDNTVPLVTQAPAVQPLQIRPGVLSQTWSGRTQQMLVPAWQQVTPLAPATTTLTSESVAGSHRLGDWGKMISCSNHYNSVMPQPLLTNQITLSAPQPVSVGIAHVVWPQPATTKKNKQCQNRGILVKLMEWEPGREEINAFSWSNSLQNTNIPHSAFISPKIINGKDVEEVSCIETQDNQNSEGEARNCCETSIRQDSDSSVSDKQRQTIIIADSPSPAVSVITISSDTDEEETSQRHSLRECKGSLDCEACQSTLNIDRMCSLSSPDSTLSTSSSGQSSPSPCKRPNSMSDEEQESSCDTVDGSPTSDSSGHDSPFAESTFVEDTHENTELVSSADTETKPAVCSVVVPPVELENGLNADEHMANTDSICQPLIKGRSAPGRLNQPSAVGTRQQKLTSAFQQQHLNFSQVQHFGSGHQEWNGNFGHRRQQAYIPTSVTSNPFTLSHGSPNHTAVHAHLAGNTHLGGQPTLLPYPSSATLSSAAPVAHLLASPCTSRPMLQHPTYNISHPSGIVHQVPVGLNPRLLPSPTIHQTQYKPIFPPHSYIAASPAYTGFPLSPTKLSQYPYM
# Experimental: as §1
# BRK = BRK (Homo sapiens, UniProt Q13882)
# BRK, sequence (Q13882 whole entry, species assumed): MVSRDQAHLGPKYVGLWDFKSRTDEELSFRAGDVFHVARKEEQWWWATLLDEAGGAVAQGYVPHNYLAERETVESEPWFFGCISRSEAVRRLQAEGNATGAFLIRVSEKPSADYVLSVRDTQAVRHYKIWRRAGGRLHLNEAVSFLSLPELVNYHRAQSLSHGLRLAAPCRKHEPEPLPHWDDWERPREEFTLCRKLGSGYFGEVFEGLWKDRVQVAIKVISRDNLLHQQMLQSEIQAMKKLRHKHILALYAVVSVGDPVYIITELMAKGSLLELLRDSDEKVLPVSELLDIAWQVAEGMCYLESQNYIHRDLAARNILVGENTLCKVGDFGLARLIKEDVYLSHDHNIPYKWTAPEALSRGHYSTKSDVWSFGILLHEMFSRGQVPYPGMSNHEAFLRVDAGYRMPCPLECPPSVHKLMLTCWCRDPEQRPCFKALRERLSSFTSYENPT
# Experimental: as §1
# PDGFR-b = PDGFR-b (Homo sapiens, UniProt P09619)
# PDGFR-b, sequence (P09619 33-1106, species assumed): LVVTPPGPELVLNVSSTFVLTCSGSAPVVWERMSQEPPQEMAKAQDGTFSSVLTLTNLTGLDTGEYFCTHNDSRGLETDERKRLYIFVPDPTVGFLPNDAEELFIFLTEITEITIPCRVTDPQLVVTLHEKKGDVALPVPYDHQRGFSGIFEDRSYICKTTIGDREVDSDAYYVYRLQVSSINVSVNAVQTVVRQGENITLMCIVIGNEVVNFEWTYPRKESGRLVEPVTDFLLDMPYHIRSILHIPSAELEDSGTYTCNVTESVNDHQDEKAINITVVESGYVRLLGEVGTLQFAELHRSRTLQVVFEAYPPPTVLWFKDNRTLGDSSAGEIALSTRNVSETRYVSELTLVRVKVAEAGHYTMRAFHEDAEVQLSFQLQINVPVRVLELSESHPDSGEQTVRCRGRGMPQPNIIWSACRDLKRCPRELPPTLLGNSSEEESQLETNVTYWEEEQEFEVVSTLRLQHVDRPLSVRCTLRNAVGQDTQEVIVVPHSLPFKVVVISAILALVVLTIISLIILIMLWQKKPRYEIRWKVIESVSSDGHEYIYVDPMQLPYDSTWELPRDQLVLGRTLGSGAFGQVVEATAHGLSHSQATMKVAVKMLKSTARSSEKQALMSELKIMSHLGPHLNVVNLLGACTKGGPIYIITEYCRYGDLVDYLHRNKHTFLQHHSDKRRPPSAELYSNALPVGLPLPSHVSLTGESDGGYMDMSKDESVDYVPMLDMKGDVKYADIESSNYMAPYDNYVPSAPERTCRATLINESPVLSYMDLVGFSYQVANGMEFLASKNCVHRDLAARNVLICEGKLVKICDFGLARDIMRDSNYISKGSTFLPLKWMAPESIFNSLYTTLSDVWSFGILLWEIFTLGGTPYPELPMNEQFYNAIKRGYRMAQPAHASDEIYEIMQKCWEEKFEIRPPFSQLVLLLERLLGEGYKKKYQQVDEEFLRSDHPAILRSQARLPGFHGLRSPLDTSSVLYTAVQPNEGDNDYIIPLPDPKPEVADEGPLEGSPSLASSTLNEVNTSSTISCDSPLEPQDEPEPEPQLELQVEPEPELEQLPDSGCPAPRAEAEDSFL
# Experimental: as §1
# SRC = SRC (Homo sapiens, UniProt P12931)
# SRC, sequence (P12931 whole entry, species assumed): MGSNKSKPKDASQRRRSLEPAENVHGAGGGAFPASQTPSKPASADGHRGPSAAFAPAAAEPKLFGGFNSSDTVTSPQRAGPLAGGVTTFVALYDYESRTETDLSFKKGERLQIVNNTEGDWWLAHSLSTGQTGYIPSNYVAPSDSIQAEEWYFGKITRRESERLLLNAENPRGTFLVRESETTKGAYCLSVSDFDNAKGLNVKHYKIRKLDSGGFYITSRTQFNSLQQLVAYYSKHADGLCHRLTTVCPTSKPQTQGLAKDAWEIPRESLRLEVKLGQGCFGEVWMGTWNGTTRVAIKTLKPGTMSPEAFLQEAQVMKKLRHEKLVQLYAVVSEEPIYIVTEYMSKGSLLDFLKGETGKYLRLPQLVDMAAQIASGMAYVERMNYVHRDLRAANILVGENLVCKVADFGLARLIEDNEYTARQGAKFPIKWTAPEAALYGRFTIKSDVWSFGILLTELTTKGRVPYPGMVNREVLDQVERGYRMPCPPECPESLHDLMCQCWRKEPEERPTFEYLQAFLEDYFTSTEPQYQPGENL
# Experimental: as §1
# AXL = target: T1, AXL (Homo sapiens, UniProt P30530)
# T1 sequence (P30530 26-894): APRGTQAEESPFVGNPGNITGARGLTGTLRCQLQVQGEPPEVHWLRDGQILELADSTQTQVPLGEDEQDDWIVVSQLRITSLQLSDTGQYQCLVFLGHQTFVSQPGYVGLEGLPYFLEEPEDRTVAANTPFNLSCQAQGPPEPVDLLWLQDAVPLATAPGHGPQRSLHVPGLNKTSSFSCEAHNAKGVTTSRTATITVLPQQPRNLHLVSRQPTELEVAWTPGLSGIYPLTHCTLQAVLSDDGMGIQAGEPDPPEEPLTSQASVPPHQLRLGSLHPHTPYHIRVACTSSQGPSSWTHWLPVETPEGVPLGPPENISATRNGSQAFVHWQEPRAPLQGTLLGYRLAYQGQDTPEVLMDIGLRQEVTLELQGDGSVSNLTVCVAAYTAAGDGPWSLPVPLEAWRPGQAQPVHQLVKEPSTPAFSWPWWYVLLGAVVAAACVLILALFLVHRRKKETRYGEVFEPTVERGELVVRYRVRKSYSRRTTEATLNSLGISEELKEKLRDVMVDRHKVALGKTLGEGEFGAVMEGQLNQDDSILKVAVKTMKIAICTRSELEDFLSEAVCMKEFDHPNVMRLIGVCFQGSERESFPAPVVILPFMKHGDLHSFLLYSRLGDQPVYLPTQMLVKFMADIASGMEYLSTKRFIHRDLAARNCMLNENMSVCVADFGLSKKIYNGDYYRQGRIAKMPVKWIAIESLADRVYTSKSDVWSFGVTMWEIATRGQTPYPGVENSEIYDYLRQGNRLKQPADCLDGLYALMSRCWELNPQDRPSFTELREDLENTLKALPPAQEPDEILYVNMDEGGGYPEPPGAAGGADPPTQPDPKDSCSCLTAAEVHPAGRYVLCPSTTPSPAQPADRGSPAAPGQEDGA
# Experimental: as §1
# TRKA = TRKA (Homo sapiens, UniProt P04629)
# TRKA, sequence (P04629 33-796, species assumed): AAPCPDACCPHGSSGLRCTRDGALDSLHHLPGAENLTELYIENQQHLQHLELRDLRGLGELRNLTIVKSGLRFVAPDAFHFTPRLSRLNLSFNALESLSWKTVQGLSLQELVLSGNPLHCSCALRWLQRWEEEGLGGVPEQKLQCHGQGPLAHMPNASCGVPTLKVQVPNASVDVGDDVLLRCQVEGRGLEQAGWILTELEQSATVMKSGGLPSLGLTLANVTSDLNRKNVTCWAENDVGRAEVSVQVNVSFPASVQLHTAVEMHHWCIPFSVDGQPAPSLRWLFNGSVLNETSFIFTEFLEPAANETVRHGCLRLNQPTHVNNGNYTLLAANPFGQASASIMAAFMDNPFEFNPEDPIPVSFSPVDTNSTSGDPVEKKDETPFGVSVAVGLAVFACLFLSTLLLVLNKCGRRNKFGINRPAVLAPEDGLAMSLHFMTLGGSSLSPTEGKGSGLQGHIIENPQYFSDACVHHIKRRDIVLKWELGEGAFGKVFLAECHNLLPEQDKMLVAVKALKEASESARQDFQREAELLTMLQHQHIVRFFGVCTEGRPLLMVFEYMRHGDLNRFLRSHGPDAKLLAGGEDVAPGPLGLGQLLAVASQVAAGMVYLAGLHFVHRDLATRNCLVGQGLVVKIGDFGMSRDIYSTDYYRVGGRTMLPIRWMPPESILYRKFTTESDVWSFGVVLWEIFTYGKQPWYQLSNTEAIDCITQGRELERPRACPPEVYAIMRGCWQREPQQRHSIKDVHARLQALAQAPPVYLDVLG
# Experimental: as §1
# KIT = KIT (Homo sapiens, UniProt P10721)
# Experimental: as §1
# LCK = LCK (Homo sapiens, UniProt P06239)
# Experimental: as §1
# MUSK = target: T2, MUSK (Homo sapiens, UniProt O15146)
# T2 sequence (O15146 24-869): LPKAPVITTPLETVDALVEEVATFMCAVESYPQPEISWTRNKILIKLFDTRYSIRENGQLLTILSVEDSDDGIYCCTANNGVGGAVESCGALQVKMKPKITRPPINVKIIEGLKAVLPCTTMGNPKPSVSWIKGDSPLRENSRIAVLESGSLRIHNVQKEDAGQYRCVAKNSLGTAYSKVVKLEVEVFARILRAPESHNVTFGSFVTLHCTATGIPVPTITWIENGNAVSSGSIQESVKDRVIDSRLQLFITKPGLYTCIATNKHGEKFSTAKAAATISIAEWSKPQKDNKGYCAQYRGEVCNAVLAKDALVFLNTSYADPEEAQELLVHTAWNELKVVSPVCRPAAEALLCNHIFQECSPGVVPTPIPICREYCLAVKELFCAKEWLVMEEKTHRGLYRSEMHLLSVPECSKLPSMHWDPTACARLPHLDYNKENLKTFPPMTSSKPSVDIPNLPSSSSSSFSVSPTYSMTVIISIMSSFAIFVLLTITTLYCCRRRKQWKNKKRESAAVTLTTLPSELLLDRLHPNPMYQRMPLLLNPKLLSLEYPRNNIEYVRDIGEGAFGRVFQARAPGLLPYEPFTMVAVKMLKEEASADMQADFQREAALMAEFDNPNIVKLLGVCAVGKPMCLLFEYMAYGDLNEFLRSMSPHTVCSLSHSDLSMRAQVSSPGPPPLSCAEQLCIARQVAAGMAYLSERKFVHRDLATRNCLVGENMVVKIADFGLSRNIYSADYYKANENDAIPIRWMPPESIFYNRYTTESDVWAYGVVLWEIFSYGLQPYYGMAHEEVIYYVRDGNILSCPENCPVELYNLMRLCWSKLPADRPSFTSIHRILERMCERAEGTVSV
# Experimental: as §1
# EPH-A4, sequence (P54764 20-986, species assumed): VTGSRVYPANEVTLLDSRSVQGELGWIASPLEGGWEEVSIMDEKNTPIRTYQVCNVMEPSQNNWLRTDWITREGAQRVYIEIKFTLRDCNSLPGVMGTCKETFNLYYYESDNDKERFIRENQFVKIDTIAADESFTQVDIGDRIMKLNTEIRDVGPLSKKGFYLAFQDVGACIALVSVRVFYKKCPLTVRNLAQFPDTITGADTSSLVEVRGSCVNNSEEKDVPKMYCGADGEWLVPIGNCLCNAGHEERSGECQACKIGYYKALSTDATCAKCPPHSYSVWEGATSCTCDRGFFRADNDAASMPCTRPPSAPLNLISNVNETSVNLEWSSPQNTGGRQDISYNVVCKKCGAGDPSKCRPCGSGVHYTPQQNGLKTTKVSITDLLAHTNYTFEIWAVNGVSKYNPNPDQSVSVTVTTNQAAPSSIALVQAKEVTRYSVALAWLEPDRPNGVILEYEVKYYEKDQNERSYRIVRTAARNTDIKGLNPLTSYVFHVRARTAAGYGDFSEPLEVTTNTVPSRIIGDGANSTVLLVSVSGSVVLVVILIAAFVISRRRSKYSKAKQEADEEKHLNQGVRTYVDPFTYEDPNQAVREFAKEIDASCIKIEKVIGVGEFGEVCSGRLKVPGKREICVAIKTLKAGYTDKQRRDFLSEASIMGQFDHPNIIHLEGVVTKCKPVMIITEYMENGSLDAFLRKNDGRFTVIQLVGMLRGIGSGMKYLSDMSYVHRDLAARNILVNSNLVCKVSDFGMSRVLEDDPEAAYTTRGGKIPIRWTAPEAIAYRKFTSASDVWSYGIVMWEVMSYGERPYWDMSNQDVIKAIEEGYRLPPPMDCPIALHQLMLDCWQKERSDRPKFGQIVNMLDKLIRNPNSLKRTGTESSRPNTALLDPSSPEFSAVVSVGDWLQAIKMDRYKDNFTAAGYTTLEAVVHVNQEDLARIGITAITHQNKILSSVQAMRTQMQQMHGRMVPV
smiles,measurement,setting,value
CSc1nc(C(=O)Nc2ccc(Oc3ccnc(C(=O)NC4COC4)c3)c(F)c2)c(-c2ccc(F)c(F)c2)o1 [Compound 37],inhibition at 5 µM,EPH-A4,< 50%
same,inhibition at 5 µM,HIPK3,< 50%
same,inhibition at 5 µM,BRK,< 50%
same,inhibition at 5 µM,PDGFR-b,< 50%
same,inhibition at 5 µM,SRC,< 50%
same,inhibition at 5 µM,AXL,< 50%
same,inhibition at 5 µM,TRKA,< 50%
same,inhibition at 5 µM,KIT,< 50%
same,inhibition at 5 µM,LCK,< 50%
same,inhibition at 5 µM,MUSK,< 50%
CNC(=O)c1cc(Oc2ccc(NC(=O)c3nc(OCC(F)(F)F)oc3-c3ccc(F)cc3)cc2F)ccn1 [Compound 38],inhibition at 5 µM,EPH-A4,< 50%
same,inhibition at 5 µM,HIPK3,50 to 79%
same,inhibition at 5 µM,BRK,90 to 94%
same,inhibition at 5 µM,PDGFR-b,< 50%
same,inhibition at 5 µM,SRC,50 to 79%
same,inhibition at 5 µM,AXL,80 to 89%
same,inhibition at 5 µM,TRKA,50 to 79%
same,inhibition at 5 µM,KIT,< 50%
same,inhibition at 5 µM,LCK,50 to 79%
same,inhibition at 5 µM,MUSK,< 50%
COc1nc(C(=O)Nc2ccc(Oc3ccnc(C(=O)NC4COC4)c3)c(F)c2)c(-c2ccc(F)cc2)o1 [Compound 39],inhibition at 5 µM,EPH-A4,< 50%
same,inhibition at 5 µM,HIPK3,< 50%
same,inhibition at 5 µM,BRK,50 to 79%
same,inhibition at 5 µM,PDGFR-b,< 50%
same,inhibition at 5 µM,SRC,< 50%
same,inhibition at 5 µM,AXL,< 50%
same,inhibition at 5 µM,TRKA,< 50%
same,inhibition at 5 µM,KIT,< 50%
same,inhibition at 5 µM,LCK,< 50%
same,inhibition at 5 µM,MUSK,< 50%
CSc1nc(C(=O)Nc2ccc(Oc3ccnc(C(=O)NCC(F)(F)F)c3)c(F)c2)c(-c2ccc(F)cc2)o1 [Compound 40],inhibition at 5 µM,EPH-A4,< 50%
same,inhibition at 5 µM,HIPK3,< 50%
same,inhibition at 5 µM,BRK,50 to 79%
same,inhibition at 5 µM,PDGFR-b,< 50%
same,inhibition at 5 µM,SRC,< 50%
same,inhibition at 5 µM,AXL,< 50%
same,inhibition at 5 µM,TRKA,< 50%
same,inhibition at 5 µM,KIT,< 50%
same,inhibition at 5 µM,LCK,< 50%
same,inhibition at 5 µM,MUSK,< 50%
CSc1nc(C(=O)Nc2ccc(Oc3ccnc(C(=O)NCCN(C)C)c3)c(F)c2)c(-c2ccc(F)cc2)o1 [Compound 41],inhibition at 5 µM,EPH-A4,50 to 79%
same,inhibition at 5 µM,HIPK3,< 50%
same,inhibition at 5 µM,BRK,≥ 95%
same,inhibition at 5 µM,PDGFR-b,< 50%
same,inhibition at 5 µM,SRC,< 50%
same,inhibition at 5 µM,AXL,< 50%
same,inhibition at 5 µM,TRKA,< 50%
same,inhibition at 5 µM,KIT,< 50%
same,inhibition at 5 µM,LCK,50 to 79%
same,inhibition at 5 µM,MUSK,< 50%
CSc1nc(C(=O)Nc2ccc(Oc3ccnc(C(=O)NC4CCN(C)CC4)c3)c(F)c2)c(-c2ccc(F)cc2)o1 [Compound 42],inhibition at 5 µM,EPH-A4,< 50%
same,inhibition at 5 µM,HIPK3,50 to 79%
same,inhibition at 5 µM,BRK,≥ 95%
same,inhibition at 5 µM,PDGFR-b,< 50%
same,inhibition at 5 µM,SRC,< 50%
same,inhibition at 5 µM,AXL,< 50%
same,inhibition at 5 µM,TRKA,< 50%
same,inhibition at 5 µM,KIT,< 50%
same,inhibition at 5 µM,LCK,< 50%
same,inhibition at 5 µM,MUSK,< 50%
COc1nc(C(=O)Nc2ccc(Oc3ccnc(C(=O)NCC(F)(F)F)c3)c(F)c2)c(-c2ccc(F)cc2)o1 [Compound 43],inhibition at 5 µM,EPH-A4,< 50%
same,inhibition at 5 µM,HIPK3,< 50%
same,inhibition at 5 µM,BRK,< 50%
same,inhibition at 5 µM,PDGFR-b,< 50%
same,inhibition at 5 µM,SRC,< 50%
same,inhibition at 5 µM,AXL,< 50%
same,inhibition at 5 µM,TRKA,< 50%
same,inhibition at 5 µM,KIT,< 50%
same,inhibition at 5 µM,LCK,< 50%
same,inhibition at 5 µM,MUSK,< 50%
